Experimental data as given in patent US10670605B2, “Cysteine reactive probes and uses thereof” (The Scripps Research Institute, priority 2015, dated 2020).
Counter-ions that a name gives are not always drawn.

Assays:
Experiment in all cases: isoTOP-ABPP of compound-treated primary human T cells
Assay type in all cases: cell-based
[1] = target: Cys residues in primary human T cells (Homo sapiens, UniProt O14976); settings: GAK C87 (O14976)
[2] = target: Cys residues in primary human T cells (Homo sapiens, UniProt Q96FV9); settings: THOC1 C49 (Q96FV9)
Chain of Cys residues in primary human T cells (Homo sapiens, UniProt Q96FV9) (Q96FV9 whole entry): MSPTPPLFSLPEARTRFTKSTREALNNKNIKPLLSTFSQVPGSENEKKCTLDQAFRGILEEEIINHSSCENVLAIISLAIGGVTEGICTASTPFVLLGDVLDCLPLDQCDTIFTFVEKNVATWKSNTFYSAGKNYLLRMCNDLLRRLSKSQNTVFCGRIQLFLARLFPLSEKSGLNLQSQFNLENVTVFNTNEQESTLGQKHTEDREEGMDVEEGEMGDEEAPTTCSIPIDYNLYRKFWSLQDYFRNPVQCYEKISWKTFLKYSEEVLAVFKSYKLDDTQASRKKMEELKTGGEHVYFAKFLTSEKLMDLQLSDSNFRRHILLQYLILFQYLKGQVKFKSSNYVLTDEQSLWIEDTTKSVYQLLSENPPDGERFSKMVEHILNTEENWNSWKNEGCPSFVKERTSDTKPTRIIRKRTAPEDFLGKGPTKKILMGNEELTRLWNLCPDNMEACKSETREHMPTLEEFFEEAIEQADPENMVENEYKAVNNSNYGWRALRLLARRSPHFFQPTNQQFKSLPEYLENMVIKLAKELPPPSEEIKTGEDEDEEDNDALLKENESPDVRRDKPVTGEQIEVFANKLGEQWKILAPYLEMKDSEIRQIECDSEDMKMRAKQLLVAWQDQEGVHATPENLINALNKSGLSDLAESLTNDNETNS

[3] = target: Cys residues in primary human T cells (Homo sapiens, UniProt Q9NWZ3); settings: IRAK4 C13 (Q9NWZ3)
Chain of Cys residues in primary human T cells (Homo sapiens, UniProt Q9NWZ3) (Q9NWZ3 whole entry): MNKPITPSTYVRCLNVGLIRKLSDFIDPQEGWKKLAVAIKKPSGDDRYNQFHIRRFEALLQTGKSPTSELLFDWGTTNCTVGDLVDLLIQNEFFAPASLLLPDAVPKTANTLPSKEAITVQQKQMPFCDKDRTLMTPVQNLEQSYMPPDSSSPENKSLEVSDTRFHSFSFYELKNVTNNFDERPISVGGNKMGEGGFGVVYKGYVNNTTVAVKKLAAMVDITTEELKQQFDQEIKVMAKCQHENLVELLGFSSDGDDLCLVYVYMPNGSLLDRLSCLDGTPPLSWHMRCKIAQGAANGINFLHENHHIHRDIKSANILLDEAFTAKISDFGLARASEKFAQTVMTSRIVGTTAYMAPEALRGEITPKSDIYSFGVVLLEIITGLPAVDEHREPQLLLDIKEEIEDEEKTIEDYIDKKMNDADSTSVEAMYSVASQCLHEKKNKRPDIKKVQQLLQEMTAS

[4] = target: T1, Cys residues in primary human T cells (Homo sapiens, UniProt Q96Q11); settings: TRNT1 C373 (Q96Q11)
T1 sequence (Q96Q11 42-434): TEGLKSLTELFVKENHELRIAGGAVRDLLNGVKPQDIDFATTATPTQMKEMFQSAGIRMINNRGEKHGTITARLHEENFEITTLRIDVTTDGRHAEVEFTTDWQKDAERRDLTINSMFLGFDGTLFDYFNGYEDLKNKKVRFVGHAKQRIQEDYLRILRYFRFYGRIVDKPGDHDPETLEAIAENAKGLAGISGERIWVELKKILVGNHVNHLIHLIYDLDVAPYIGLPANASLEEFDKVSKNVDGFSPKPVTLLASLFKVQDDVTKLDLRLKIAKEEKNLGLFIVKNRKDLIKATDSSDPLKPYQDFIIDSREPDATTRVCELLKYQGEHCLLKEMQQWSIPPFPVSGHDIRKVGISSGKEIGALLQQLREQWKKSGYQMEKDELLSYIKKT

[5] = target: T2, Cys residues in primary human T cells (Homo sapiens, UniProt P29590); settings: PML C479 (P29590)
T2 sequence (P29590 1-882): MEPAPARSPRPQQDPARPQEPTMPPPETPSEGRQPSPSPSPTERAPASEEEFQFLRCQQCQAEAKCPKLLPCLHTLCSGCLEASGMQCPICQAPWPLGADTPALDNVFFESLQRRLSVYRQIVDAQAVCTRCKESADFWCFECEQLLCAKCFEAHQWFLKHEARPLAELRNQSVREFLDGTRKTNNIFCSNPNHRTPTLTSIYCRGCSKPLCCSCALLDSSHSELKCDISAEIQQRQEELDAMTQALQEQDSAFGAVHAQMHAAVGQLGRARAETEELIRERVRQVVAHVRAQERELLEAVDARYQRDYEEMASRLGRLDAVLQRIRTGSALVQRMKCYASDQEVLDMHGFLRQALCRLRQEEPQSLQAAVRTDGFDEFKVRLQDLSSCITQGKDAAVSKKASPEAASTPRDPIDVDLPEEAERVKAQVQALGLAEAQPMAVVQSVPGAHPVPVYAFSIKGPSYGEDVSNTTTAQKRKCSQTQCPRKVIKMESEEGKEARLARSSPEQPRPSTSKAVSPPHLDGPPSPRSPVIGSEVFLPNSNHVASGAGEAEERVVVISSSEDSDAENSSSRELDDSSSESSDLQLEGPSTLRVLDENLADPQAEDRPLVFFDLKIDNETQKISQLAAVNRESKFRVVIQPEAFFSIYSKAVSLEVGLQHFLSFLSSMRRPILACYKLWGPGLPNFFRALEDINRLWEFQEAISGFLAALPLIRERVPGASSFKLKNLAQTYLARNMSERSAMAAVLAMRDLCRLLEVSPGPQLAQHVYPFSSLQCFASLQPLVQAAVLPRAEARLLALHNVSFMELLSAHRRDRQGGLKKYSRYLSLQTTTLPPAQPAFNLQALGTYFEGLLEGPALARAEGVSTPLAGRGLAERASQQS

[6] = target: Cys residues in primary human T cells (Homo sapiens, UniProt Q8N0Z8); settings: PUSL1 C292 (Q8N0Z8); DMF 50 μM 4h
Chain of Cys residues in primary human T cells (Homo sapiens, UniProt Q8N0Z8) (Q8N0Z8 whole entry): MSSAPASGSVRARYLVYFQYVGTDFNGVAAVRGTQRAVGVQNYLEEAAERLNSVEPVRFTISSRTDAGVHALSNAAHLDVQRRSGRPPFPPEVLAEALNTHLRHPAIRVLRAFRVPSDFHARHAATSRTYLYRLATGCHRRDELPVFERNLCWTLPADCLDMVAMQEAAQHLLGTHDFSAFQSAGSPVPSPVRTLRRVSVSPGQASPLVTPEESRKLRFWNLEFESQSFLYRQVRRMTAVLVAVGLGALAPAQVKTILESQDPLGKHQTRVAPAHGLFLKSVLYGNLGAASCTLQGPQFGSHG

[7] = target: Cys residues in primary human T cells (Homo sapiens, UniProt P31153)
Chain of Cys residues in primary human T cells (Homo sapiens, UniProt P31153) (P31153 whole entry): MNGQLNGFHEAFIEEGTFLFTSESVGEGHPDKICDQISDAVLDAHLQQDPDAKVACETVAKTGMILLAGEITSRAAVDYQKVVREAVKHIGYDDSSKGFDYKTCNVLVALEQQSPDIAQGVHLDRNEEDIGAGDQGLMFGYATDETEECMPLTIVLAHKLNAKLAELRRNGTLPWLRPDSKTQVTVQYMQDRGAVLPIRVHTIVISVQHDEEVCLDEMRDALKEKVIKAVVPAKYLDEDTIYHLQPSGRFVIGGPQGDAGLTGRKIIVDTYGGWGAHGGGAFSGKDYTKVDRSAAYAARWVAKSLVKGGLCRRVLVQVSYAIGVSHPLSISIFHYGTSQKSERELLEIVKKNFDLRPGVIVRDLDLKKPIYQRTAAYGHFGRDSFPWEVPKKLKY

[8] = target: T3, Cys residues in primary human T cells (Homo sapiens, UniProt Q96I15); settings: SCLY C22 (Q96115)
T3 sequence (Q96I15 1-445): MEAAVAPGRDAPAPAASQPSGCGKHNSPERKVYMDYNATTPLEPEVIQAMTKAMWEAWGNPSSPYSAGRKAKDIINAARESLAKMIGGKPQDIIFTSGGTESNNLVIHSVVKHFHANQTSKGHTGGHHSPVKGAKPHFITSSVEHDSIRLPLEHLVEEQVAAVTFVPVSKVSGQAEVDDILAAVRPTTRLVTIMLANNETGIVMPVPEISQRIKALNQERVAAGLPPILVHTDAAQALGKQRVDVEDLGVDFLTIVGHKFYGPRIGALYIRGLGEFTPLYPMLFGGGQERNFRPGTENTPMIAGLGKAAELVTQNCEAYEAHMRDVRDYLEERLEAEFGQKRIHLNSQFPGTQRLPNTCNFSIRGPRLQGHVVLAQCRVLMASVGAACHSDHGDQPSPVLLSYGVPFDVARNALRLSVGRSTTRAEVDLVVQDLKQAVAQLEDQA

Chain of Cys residues in primary human T cells (Homo sapiens, UniProt O14976) (O14976 whole entry): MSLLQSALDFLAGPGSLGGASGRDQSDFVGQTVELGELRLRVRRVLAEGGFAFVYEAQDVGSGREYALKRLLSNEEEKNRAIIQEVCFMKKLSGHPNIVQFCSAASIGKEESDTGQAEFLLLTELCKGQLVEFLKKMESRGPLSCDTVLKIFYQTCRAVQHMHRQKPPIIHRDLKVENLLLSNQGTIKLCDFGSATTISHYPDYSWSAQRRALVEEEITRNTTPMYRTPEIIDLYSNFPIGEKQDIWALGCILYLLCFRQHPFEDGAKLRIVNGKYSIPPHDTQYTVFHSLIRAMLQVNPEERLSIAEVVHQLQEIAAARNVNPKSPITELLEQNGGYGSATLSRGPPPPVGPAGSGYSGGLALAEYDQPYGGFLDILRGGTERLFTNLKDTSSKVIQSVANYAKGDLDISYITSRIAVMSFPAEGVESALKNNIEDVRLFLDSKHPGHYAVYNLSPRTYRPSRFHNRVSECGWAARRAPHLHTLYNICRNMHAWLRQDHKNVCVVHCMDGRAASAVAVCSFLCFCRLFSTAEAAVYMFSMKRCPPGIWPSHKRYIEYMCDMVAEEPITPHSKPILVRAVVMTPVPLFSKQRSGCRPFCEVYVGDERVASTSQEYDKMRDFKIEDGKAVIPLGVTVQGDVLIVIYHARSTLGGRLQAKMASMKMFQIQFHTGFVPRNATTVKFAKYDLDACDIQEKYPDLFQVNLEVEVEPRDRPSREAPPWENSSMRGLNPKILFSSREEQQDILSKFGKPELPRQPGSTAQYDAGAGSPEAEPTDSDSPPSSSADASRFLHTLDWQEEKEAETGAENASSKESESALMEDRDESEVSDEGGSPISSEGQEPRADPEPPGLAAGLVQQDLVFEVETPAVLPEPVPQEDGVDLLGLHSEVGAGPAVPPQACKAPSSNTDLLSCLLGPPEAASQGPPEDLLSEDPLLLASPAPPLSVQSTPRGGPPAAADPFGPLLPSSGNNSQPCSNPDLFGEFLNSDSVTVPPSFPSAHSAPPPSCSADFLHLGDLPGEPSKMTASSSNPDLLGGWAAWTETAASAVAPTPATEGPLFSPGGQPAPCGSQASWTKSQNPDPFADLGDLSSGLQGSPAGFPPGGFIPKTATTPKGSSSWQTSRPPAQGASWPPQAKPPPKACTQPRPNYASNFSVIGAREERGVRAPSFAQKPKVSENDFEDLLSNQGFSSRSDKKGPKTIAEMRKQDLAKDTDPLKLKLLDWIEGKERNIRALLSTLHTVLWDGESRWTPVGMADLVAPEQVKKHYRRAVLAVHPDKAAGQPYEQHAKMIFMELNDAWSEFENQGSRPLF

COC(=O)/C=C/C(=O)OC [DMF, dimethyl fumarate]
R value (DMSO/DMF) ([1]; DMF 10 μM 4h): 1.36 | R value (DMSO/DMF) ([1]; DMF 50 μM 2h): 4.79 | R value (DMSO/DMF) ([2]; DMF 50 μM 1h): 3.93 | R value (DMSO/DMF) ([2]; DMF 50 μM 2h): 5.7 | R value (DMSO/DMF) ([3]; DMF 50 μM 1h): 8.3 | R value (DMSO/DMF) ([3]; DMF 50 μM 4h): 20 | R value (DMSO/DMF) ([4]; DMF 50 μM 1h): 1.97 | R value (DMSO/DMF) ([4]; DMF 50 μM 2h): 2.66 | R value (DMSO/DMF) ([4]; DMF 50 μM 4h): 5.83 | R value (DMSO/DMF) ([5]; DMF 10 μM 4h): 2.1 | R value (DMSO/DMF) ([5]; DMF 25 μM 4h): 2.17 | R value (DMSO/DMF) ([5]; DMF 50 μM 2h): 4.57 | R value (DMSO/DMF) [6]: 4.68 | R value (DMSO/DMF) ([7]; MAT2A C56 (P31153), DMF 50 μM 4h): 4.17 | R value (DMSO/DMF) ([7]; MAT2A C104 (P31153), DMF 10 μM 4h): 1.5 | R value (DMSO/DMF) ([7]; MAT2A C104 (P31153), DMF 50 μM 4h): 4.11 | R value (DMSO/DMF) ([8]; DMF 10 μM 4h): 1.31 | R value (DMSO/DMF) ([8]; DMF 25 μM 4h): 2.16 | R value (DMSO/DMF) ([8]; DMF 50 μM 1h): 1.9 | R value (DMSO/DMF) ([8]; DMF 50 μM 2h): 2.16 | R value (DMSO/DMF) ([8]; DMF 50 μM 4h): 4.04
